Experimental data reported in US7576053B2, “Methods and compositions for treating degenerative bone disorders” (Rigel Pharmaceuticals, Inc., priority 2005, dated 2009).

Assays:
Format in all cases: in vivo
[1] = tested on: rat collagen induced arthritis (CIA) model; assay: Rat collagen induced arthritis (CIA) model, hindlimb radiographs scored blindly; conditions: b.i.d., 18 days of treatment
Excerpt: Data are the means±standard error, where n=13 per group, except for naïve (n=4). Radiographs of hindlimbs were obtained at the conclusion of the study and scored blindly. […] To examine effect of Syk inhibitor 2,4-pyrimidinediamine compound in preventing bone degeneration, a rat collagen induced arthritis model was used (see, e.g., WO 2004/014382, incorporated herein by reference). Rats were immunized with bovine collagen II on day 0 and boosted on day 7. […] Animals were subsequently treated b.i.d. with inhibitor compound or vehicle alone. After 18 days of treatment, hind paw bone structure and integrity were evaluated by X-rays, histopathology, and serum bone marker COMP.

[2] = tested on: cartilage oligometrix matrix protein (COMP); assay: Rat CIA model, serum bone marker COMP; conditions: FIG. 4
Description: (§1) To examine effect of Syk inhibitor 2,4-pyrimidinediamine compound in preventing bone degeneration, a rat collagen induced arthritis model was used (see, e.g., WO 2004/014382, incorporated herein by reference). Rats were immunized with bovine collagen II on day 0 and boosted on day 7. […] Animals were subsequently treated b.i.d. with inhibitor compound or vehicle alone. After 18 days of treatment, hind paw bone structure and integrity were evaluated by X-rays, histopathology, and serum bone marker COMP.

[3] = tested on: rat collagen induced arthritis (CIA) model; assay: Rat CIA model, histopathology of hind paw bone sections (safranin-O)
Excerpt: as §1, with “Upper left—naïve rat; upper right—vehicle rat; lower left—vehicle rat; lower right—compound 1007 treated rat. Micrographs are safranin-O stained sections of hind ankle paws of CIA rats, magnification 40×. To” for “To”

Structure (SMILES): COc1cc(Nc2ncc(F)c(Nc3ccc4c(n3)NC(=O)C(C)(C)O4)n2)cc(OC)c1OC [compound 1007, N4-(2,2-dimethyl-3-oxo-4H-5-pyrid[1,4]oxazin-6-yl)-5-fluoro-N2-(3,4,5-trimethoxyphenyl)-2,4-pyrimidinediamine]
- bone erosion (radiograph score of hind paws) ([1]; 10 mg/kg, p<0.05): significant reduction in bone erosion
- bone erosion (radiograph score of hind paws) ([1]; 30 mg/kg, p<0.001): significant reduction in bone erosion
- serum levels of cartilage oligometrix matrix protein (COMP), a marker for collagen destruction [2]: reduction
- severity of bone destruction (histopathological assessment of bone sections) ([3]; FIG. 2): significant reduction in severity of bone destruction
- bone erosion (safranin-O stained sections of hind ankle paws) ([3]; FIG. 3, magnification 40x): reduction
- osteoclast activity (safranin-O stained sections of hind ankle paws) ([3]; FIG. 3, magnification 40x): reduction
- pannus formation (safranin-O stained sections of hind ankle paws) ([3]; FIG. 3, magnification 40x): reduction
